“Also recorded” adds a separate entry of the source.
Experiments:
[1] = test system: UltraGlo luciferase; assay: RLU of 5,5-disubstituted luciferin analogs normalized to racemic luciferins (Table 1); type: biochemical; conditions: normalized to 1 mM racemic luciferins under identical conditions
Protocol: Further tests were conducted at various substrate concentrations in the presence of sub-saturating D-Luciferin as a means to compare the binding affinity of the substrates. Solutions of 0.005 mg/ml Click Beetle-Green luciferase (CBG) or UltraGlo luciferase were prepared in Bright-Glo™ assay buffer (Promega E263A) with 3 mM ATP. A 2 mM solution of each substrate was then prepared in water containing D-Luciferin (sub-saturating). Each substrate+D-Luciferin was two-fold serially diluted in luciferin free water. A sample of 50 μL of each substrate dilution was combined with 50 μL of the enzyme solution. Samples were incubated at room temperature for one minute, and luminescence was measured on a GLOMAX® Multi+ plate luminometer. […] (FIG. 5A-F). RLU values for certain representative compounds (normalized to racemic luciferins under identical conditions) are provided in Table 1 above. For certain representatative compounds, substrate titration tests were performed using procedures as described herein without comparison to luciferins, therefore providing RLU values not normalized to those of luciferins.
(§1) To determine if luciferin analogs with substitutions at the 5,5 position could be substrates for UltraGlo™ luciferase, tests were performed with analogs containing various di-substitutions of alkyl groups and closed ring structures in luminescence assays. A solution of 0.005 mg/ml UltraGlo™ luciferase (Promega Corp) prepared in 1×TBS+1% Prionex was combined with 0.5 mM ATP in Bright-Glo™ assay buffer (Promega E263A). All substrates were diluted separately in DMSO to 20 mM. After a 30-minute incubation at room temperature, diluted substrate was added to 1 mM final concentration in the reaction and mixed by pipetting. Reactions were further incubated at room temperature for 1 minute, and luminescence measured on a GLOMAX® Multi+ plate luminometer.

[2] = test system: ULTRA-GLO™ luciferase; assay: Inhibition of luciferase activity by dehydroluciferins; type: biochemical; conditions: titrated from 0.25 mM in 0.25 mM racemic luciferin, 0.1 mM ATP, 1 minute
Protocol: Inhibition of luciferase activity by dehydroluciferins: ULTRA-GLO™ luciferase (Promega, 0.1 mg/mL)+0.1% PRIONEX® in detection reagent buffer was prepared. The solution was divided into 2 portions with 0.25 mM Racemic H-Luciferin added to one portion and 0.25 mM racemic NH2 luciferin to the other portion. H-dehydroluciferin (0.25 mM) was added to an aliquot of the racemic H-Luciferin solution, and NH2-dehydroluciferin (0.25 mM) was added to an aliquot of the racemic NH2 luciferin solution. 2× serial dilutions of each of the dehydroluciferin samples were prepared using the racemic solutions as a diluent (500 μL of dehydroluciferin solution added to 500 μL of ULTRA-GLO™+racemic luciferin). 50 μL of each titration series was then added to […] 0.1 mM ATP. The samples were incubated for 1 minute, and the luminescence was measured on GLOMAX®-Multi+ plate luminometer (n=6).

[3] = test system: UltraGlo™ luciferase; assay: Luminescence assay of 5,5-substituted analogs as substrates for UltraGlo™ luciferase (FIG. 7); type: biochemical; conditions: 1 mM substrate, 0.005 mg/ml enzyme, 0.5 mM ATP, 1 minute at room temperature
Protocol: as §1

[4] = Thermal stability of luciferin stock solutions at 60° C. by RP-HPLC; conditions: stock solution pH=6.0, 7.0 mM; for Thermal stability (decomposition in solution): detergents, ULTRA-GLO luciferase 0.1 mg/mL
[5] = test system: recombinant beetle luciferases; conditions: only the D-form; Viviani et al., Biochemistry 2014; cited from earlier work
[6] = test system: firefly or click beetle luciferases; conditions: Branchini et al., J. Am. Chem. Soc. 2002; cited from earlier work

Structure (SMILES) | RLU% (RLU normalized to the one generated by 1 mM racemic luciferins under identical conditions) [1] | also measured
O=C(O)c1csc(-c2nc3ccc(O)cc3s2)n1 [H-dehydroluciferin] | – | Inhibition of luciferase activity [2]: potent inhibitors
O=C(O)C1N=C(c2nc3ccc(O)cc3s2)SC1(Cc1ccccc1)Cc1ccccc1 (stereo not drawn) [CS0396, 5,5-dibenzyl-2-(6-hydroxybenzo[d]thiazol-2-yl)-4,5-dihydrothiazole-4-carboxylic acid] | 1.0% | Luminescence as substrate [3]: measurable luminescence values
Nc1ccc2nc(-c3nc(C(=O)O)cs3)sc2c1 [NH2-dehydroluciferin] | – | Inhibition of luciferase activity [2]: potent inhibitors
O=C(O)C1N=C(c2nc3cc(F)c(O)cc3s2)SC12CCCCC2 (stereo not drawn) [CS0392, 2-(5-fluoro-6-hydroxybenzo[d]thiazol-2-yl)-1-thia-3-azaspiro[4.5]dec-2-ene-4-carboxylic acid] | 0.13% | Luminescence as substrate [3]: measurable luminescence values
CC1(C)SC(c2nc3ccc(N)cc3s2)=NC1C(=O)O (stereo not drawn) [III-b, 2-(6-aminobenzo[d]thiazol-2-yl)-5,5-dimethyl-4,5-dihydrothiazole-4-carboxylic acid] | – | Thermal stability (decomposition in solution) [4]: virtually no decomposition; also recorded: more thermally stable than the unsubstituted luciferin; Light production [5]: produce light
O=C(O)[C@H]1CSC(c2nc3ccc(O)cc3s2)=N1 [unsubstituted luciferin] | – | Thermal stability (decomposition in solution) [4]: significant decomposition; Major degradation product ([4]; with or without ULTRA-GLO luciferase): dehydroluciferin
CC1(C)SC(c2nc3ccc(O)cc3s2)=NC1C(=O)O (stereo not drawn) [III-a, 2-(6-hydroxybenzo[d]thiazol-2-yl)-5,5-dimethyl-4,5-dihydrothiazole-4-carboxylic acid] | – | Thermal stability (decomposition in solution) [4]: virtually no decomposition; also recorded: more thermally stable than the unsubstituted luciferin; Light production via luciferase mediated processes [6]: incapable of producing light
CCC1(CC)SC(c2nc3cc(F)c(O)cc3s2)=NC1C(=O)O (stereo not drawn) [CS0388, 5,5-diethyl-2-(5-fluoro-6-hydroxybenzo[d]thiazol-2-yl)-4,5-dihydrothiazole-4-carboxylic acid] | 0.64% | Luminescence as substrate [3]: measurable luminescence values

Continued, in another order:

RLU% (RLU normalized to the one generated by 1 mM racemic luciferins under identical conditions) [1] | Structure (SMILES) | also measured
0.16% | CCCC1(CCC)SC(c2nc3ccc(O)cc3s2)=NC1C(=O)O (stereo not drawn) [CS0427, 2-(6-hydroxybenzo[d]thiazol-2-yl)-5,5-dipropyl-4,5-dihydrothiazole-4-carboxylic acid] | –
0.09% | O=C(O)C1N=C(c2nc3ccc(O)cc3s2)SC12CCOCC2 (stereo not drawn) [CS0439, 2-(6-hydroxybenzo[d]thiazol-2-yl)-8-oxa-1-thia-3-azaspiro[4.5]dec-2-ene-4-carboxylic acid] | –
0.29% | O=C(O)C1N=C(c2nc3ccc(O)cc3s2)SC12CCC2 (stereo not drawn) [CS0329, 6-(6-hydroxybenzo[d]thiazol-2-yl)-5-thia-7-azaspiro[3.4]oct-6-ene-8-carboxylic acid] | –
0.43% | O=C(O)C1N=C(c2nc3ccc(O)cc3s2)SC12CCCC2 (stereo not drawn) [CS0326, 2-(6-hydroxybenzo[d]thiazol-2-yl)-1-thia-3-azaspiro[4.4]non-2-ene-4-carboxylic acid] | –
0.60% | CCC1(CC)SC(c2nc3ccc(O)cc3s2)=NC1C(=O)O (stereo not drawn) [CS0330, 5,5-diethyl-2-(6-hydroxybenzo[d]thiazol-2-yl)-4,5-dihydrothiazole-4-carboxylic acid] | –
0.13% | O=C(O)C1N=C(c2nc3ccc(O)cc3s2)SC12CCCCCC2 (stereo not drawn) [CS0397, 2-(6-hydroxybenzo[d]thiazol-2-yl)-1-thia-3-azaspiro[4.6]undec-2-ene-4-carboxylic acid] | –
0.27% | O=C(O)C1N=C(c2nc3ccc(O)cc3s2)SC12CC2 (stereo not drawn) [CS0333, 5-(6-hydroxybenzo[d]thiazol-2-yl)-4-thia-6-azaspiro[2.4]hept-5-ene-7-carboxylic acid] | –
0.20% | CN1CCC2(CC1)SC(c1nc3ccc(O)cc3s1)=NC2C(=O)O (stereo not drawn) [CS0420, 2-(6-hydroxybenzo[d]thiazol-2-yl)-8-methyl-1-thia-3,8-diazaspiro[4.5]dec-2-ene-4-carboxylic acid] | –
0.22% | O=C(O)C1N=C(c2nc3ccc(O)cc3s2)SC12CCCCC2 (stereo not drawn) [CS0325, 2-(6-hydroxybenzo[d]thiazol-2-yl)-1-thia-3-azaspiro[4.5]dec-2-ene-4-carboxylic acid] | –
0.31% | CC1CCC2(CC1)SC(c1nc3ccc(O)cc3s1)=NC2C(=O)O (stereo not drawn) [CS0404, 2-(6-hydroxybenzo[d]thiazol-2-yl)-8-methyl-1-thia-3-azaspiro[4.5]dec-2-ene-4-carboxylic acid] | –

Reference: patent publication US10913972B2, “5,5-disubstituted luciferins and their use in luciferase-based assays” (Promega Corporation, priority 2016, dated 2021)
